From patent US20260206759A1, “PYRAZOL-5-ETHER COMPOUND, AND PREPARATION METHOD THEREFOR AND USE THEREOF” (CAC NANTONG CHEMICAL CO., LTD., priority 2023, published 2026)

Columns and labels:
Type in all cases: in vivo
[1] = tested on: wheat powdery mildew (Blumeria graminis (DC.) Speer); assay: Whole-plant pot assay, control effect against wheat powdery mildew; settings: spray on wheat leaves, inoculation 24 h after treatment, assessed 10 days after inoculation
Method: Various kinds of pathogens were tested with the compounds of the present application. Unless otherwise specified in the examples and the present application, the preparation method of samples is as follows: 10 mg of the compound was weighed and dissolved in 1 mL DMF to prepare a 10000 ppm stock solution, and the stock solution was diluted with 0.05% Tween-80 aqueous solution to the required concentrations for activity tests.
In this example, the control effects of the prepared pyrazol-5-ether compounds against wheat powdery mildew (Blumeria graminis (DC.) Speer) were tested using the following method.
A whole-plant pot assay was employed for screening. The pesticide formulation was uniformly sprayed onto wheat leaves at the first true leaf stage using a laryngeal atomizer, with three replicates per treatment. The treated plant was air-dried naturally indoors. At 24 hours post-treatment, wheat powdery mildew spores (collected approximately 10 days after inoculation) were evenly dusted onto the compound-treated wheat leaves. Disease assessment was conducted 10 days after spore inoculation when symptom development stabilized in the control group. The assessment results were recorded on a 100-0 scale, where ‘100’ indicates complete disease absence and ‘0’ represents maximum disease severity.

[2] = tested on: cucumber powdery mildew (Erysiphe cichoracearum); assay: Whole-plant pot assay, control effect against cucumber powdery mildew; settings: 2.5 ppm, foliar spray on cucumber seedlings, inoculation 24 h after treatment
Method: In this example, the control effects of the prepared pyrazol-5-ether compounds against cucumber powdery mildew (Erysiphe cichoracearum) were tested using the following method.
(§1) A whole-plant pot assay was employed for screening. […] Greenhouse-cultivated cucumber seedlings at the two-leaf stage served as test hosts for cucumber powdery mildew (Erysiphe cichoracearum). The compounds of the present application were sprayed on the leaves at designed concentrations, and lank controls sprayed with water were also set, in triplicate. At 24 hours post-treatment, pathogen inoculation was conducted. After inoculation, the plants were maintained in controlled environment chamber for constant humidity culture (temperature: 25° C. day/20° C. night, relative humidity: 95%-99%). After 24 hours of incubation, the plants were transferred to the greenhouse. Control effect assessments were conducted on the compounds when disease symptoms fully developed in controls (typically one week). The assessment results were recorded on a 100-0 scale, where ‘100’ indicates complete disease absence and ‘0’ represents maximum disease severity.

[3] = tested on: soybean rust (Phakopsora pachyrhizi); assay: Whole-plant pot assay, control effect against soybean rust; settings: foliar spray on soybean plants, inoculation 24 h after treatment
Method: In this example, the control effects of the prepared pyrazol-5-ether compounds against soybean rust (Phakopsora pachyrhizi) were tested using the following method.
as §1, with “soybean plants” for “cucumber seedlings”, “soybean rust (Phakopsora pachyrhizi).” for “cucumber powdery mildew (Erysiphe cichoracearum).”, “blank” for “lank”, “recorded according to the A Manual of Assessment Keys for Plant Diseases compiled by the American Phytopathological Society” for “recorded”

SMILES	control effect against wheat powdery mildew ([1]; 10 ppm) [%]	control effect against wheat powdery mildew ([1]; 40 ppm) [%]	control effect against cucumber powdery mildew [2] [%]	control effect against soybean rust ([3]; 4 ppm) [%]	control effect against soybean rust ([3]; 10 ppm) [%]
CCN(C)/C=N/c1cc(C)c(Oc2cc(C(F)(F)F)nn2C)cc1C [Compound 16, (E)-N′-[4-(1-methyl-3-trifluoromethyl-1H-pyrazol-5-yloxy)-2,5-dimethylphenyl]-N-ethyl-N-met hylformamidine]	81.48	96.30			
CCN(C)C=Nc1cc(C)c(Oc2cc(C)nn2C)cc1Cl [Compound 132]	74.07				
CCN(C)/C=N/c1cc(Cl)c(Oc2cc(C(C)(C)C)nn2C)cc1C [KC1]	0	22.22	0		
CCN(C)C=Nc1cc(C)c(Oc2c(C)c(C)nn2C)cc1C [Compound 143]	74.07				
Cc1cc(Oc2cc(C(C)(C)C)nn2C)c(Cl)cc1/N=C/N1CCCC1 [KC2]	0	0	0		
CCN(C)/C=N/c1cc(C)c(Oc2ccn(-c3ccc(Cl)cc3)n2)cc1C [KC3]	0	59.26	22.22	0	22
